# Where “and” joins values, the source holds several entries; their conditions need not be identical. Identical values can stand only once.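 Following 48 hours of exposure in 96-well plates, responses at five concentrations were used to interpolate endpoints linearly. GI50 marks 50% less growth. TGI: concentration producing complete growth inhibition.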
# Tests used:
# Test in all cases: NCI-60 cell line screen, 48 h
# MDA-MB-435 = test system: MDA-MB-435
# MOLT-4 leukemia = test system: MOLT-4 leukemia
# HCC-2998 colon = test system: HCC-2998 colon
# OVCAR-3 ovarian = test system: OVCAR-3 ovarian
# ACHN renal = test system: ACHN renal
# NCI-H460 lung = test system: NCI-H460 lung
# EKVX NSCLC = test system: EKVX NSCLC
# HOP-62 NSCLC = test system: HOP-62 NSCLC
# NCI-H522 lung = test system: NCI-H522 lung
# HT29 colon = test system: HT29 colon
Compound,GI50 (MDA-MB-435),TGI (MDA-MB-435) [µM],GI50 (MOLT-4 leukemia),TGI (MOLT-4 leukemia) [µM],GI50 (HCC-2998 colon) [µM],TGI (HCC-2998 colon) [µM],GI50 (OVCAR-3 ovarian),TGI (OVCAR-3 ovarian) [µM],GI50 (ACHN renal),TGI (ACHN renal) [µM],GI50 (NCI-H460 lung),TGI (NCI-H460 lung) [µM],GI50 (EKVX NSCLC) [µM],TGI (EKVX NSCLC) [µM],GI50 (HOP-62 NSCLC),TGI (HOP-62 NSCLC) [µM],GI50 (NCI-H522 lung),TGI (NCI-H522 lung) [µM],GI50 (HT29 colon),TGI (HT29 colon) [µM]
S=C(Nc1ccccc1)N1CCn2c1nsc2=Nc1ccccc1,> 100 µM,> 100,56.5 µM,> 100,> 100,> 100,90 µM,> 100,50.3 µM,> 100,> 100 µM,> 100,> 100,> 100,> 100 µM,> 100,46.2 µM,> 100,> 100 µM,> 100
CCCNc1cccc(-n2ncc3c(N/N=C/c4ccncc4)ncnc32)c1,0.757 µM,> 25,> 25 µM,> 25,> 25,> 25,2.17 µM,> 25,> 6.92 µM,> 25,2.65 µM,> 25,> 25,> 25,4.72 µM,> 25,1.44 µM,> 25,14.9 µM,> 25
COc1cccc2ccc3c(c12)C(=O)OC31CCc2c(C)cccc21 (stereo unspecified),–,> 100,–,33.7,–,> 46.4,–,> 46.4,–,40.5,–,> 31.6,–,> 46.4,–,> 46.4,–,> 31.6,–,> 31.6
C=C1C[C@@H]2[C@H](CC[C@]3(C)C(=O)CC[C@@H]23)[C@@]2(C)C=CC(=O)C=C12,26.3 µM,> 81.5,25.7 µM,> 92.6,18.1,33.5,26.5 µM,> 66.3,23.5 µM,54.3,22 µM,> 63.2,> 59.2,> 100,35.2 µM,> 83.1,8.79 µM,> 38.8,37.1 µM,> 100
N#Cc1ccc2c(c1)C(=O)c1c-2n(CCCN=[N+]=[N-])c(=O)c2cc([N+](=O)[O-])ccc12,> 50 µM,> 50,1.8 µM,9,> 50,> 50,> 50 µM,> 50,5.28 µM,> 50,1.11 µM,> 50,> 50,> 50,15 µM,> 50,37.4 µM,> 50,32.1 µM,> 50
Cc1nn2c(/C=C3\C(=O)Nc4ccccc43)c(C)nc2s1,2.85 µM,> 100,17.5 µM,> 100,13.7,> 100,35.6 µM,> 100,> 100 µM,> 100,13.3 µM,> 100,74.1,> 100,15.7 µM,> 100,18.5 µM,> 100,5.32 µM,> 100
O=S1(=O)CC(Br)C(Br)C1 (stereo unspecified),4.16 µM,18.6,3.27 µM,16.2,14.9,28.9,2.77 µM,7.82,2.61 µM,6.72,20.4 µM,61.8,18.5,49.8,12.7 µM,27.6,1.99 µM,3.86,3.71 µM,11.3
CS(=O)(=O)Nc1cc(-c2ccc3ncnc(Nc4cccc(Cl)c4F)c3c2)cnc1Cl,4.73 µM,21.9,2.31 µM,8.46,1.66,5.01,1.84 µM,7.52,4.09 µM,> 100,4.09 µM,> 100,1.44,6.27,2.48 µM,60.7,3 µM,17,3.3 µM,38.4
CN(C)CCNc1c2c(c(NCCN(C)C)c3c(CO)c[nH]c13)C(=O)c1ccccc1C2=O,4.56 µM,20.6,0.371 µM,–,1.43,5.46,3.91 µM,25.1,1.92 µM,9.96,1.92 µM,9.12,3.05,9.34,1.02 µM,7.29,4.6 µM,24.1,1.4 µM,> 23.2
Cc1c(N)nc(C(CC(N)=O)NCC(N)C(N)=O)nc1C(=O)NC(C(=O)NC(C)C(O)C(C)C(=O)NC(C(=O)NCCc1nc(-c2nc(C(=O)NCCCNCCCCN)cs2)cs1)C(C)O)C(OC1OC(CO)C(O)C(O)C1OC1OC(CO)C(O)C(OC(N)=O)C1O)c1cnc[nH]1 (stereo unspecified),15.9 µg/mL,–,4.22 µg/mL and 2.23 µg/mL,–,–,> 10,7.69 µg/mL,–,0.182 µg/mL and 0.0425 µg/mL,–,0.199 µg/mL and 0.171 µg/mL,> 10,–,> 10,0.137 µg/mL,–,7.11 µg/mL,> 10,50.8 µg/mL,> 10
O=c1[nH]cnc2nc(-c3ccc(N(CCCl)CCCl)cc3)[nH]c12,3.21 µM,> 100,> 100 µM,> 100,4.76,> 100,22.8 µM,79.6,2.58 µM,33.5,4.51 µM,> 100,11,> 100,10.7 µM,63.8,> 100 µM,> 100,> 100 µM,> 100
CN1N=Nc2c(C(F)(F)F)nn(-c3ccccc3)c2N(C)C1=O,> 100 µM,> 100,–,> 45.3,> 100,> 100,> 100 µM,> 100,> 100 µM,> 100,> 100 µM,> 100,> 100,> 100,> 100 µM,> 100,> 100 µM,> 100,> 100 µM,> 100
O=C(O)c1ccc2cccnc2c1O,0.87 µM,35.8,1.82 µM,> 70.3,2.32,37.5,1.68 µM,5.22,1.7 µM,11.3,0.551 µM,11.1,1.75,> 46,1.37 µM,41.6,0.948 µM,13.3,2.43 µM,> 79
c1ccc(-c2cnc3nc4ccccc4nc3n2)cc1,–,3.22,–,43.1,–,43.3,–,5.63,–,15.4,–,13.3,–,16.5,–,65.3,–,19,–,35.5

# Source: PubChem BioAssay (NCI)
